Assays:
Test in all cases: SelectScreen, TR FRET
Conditions in all cases: compound 5.0 µM
AKT1 (human) = AKT1 (human) (UniProt P31749)
CDK1 CCNB1 (human) = CDK1 CCNB1 (human) (UniProt P06493+P14635)
CHEK2 (human) = CHEK2 (human) (UniProt O96017)
CLK2 (human) = CLK2 (human) (UniProt P49760)
CSNK1A1 (human) = CSNK1A1 (human) (UniProt P48729)
CSNK1E (human) = CSNK1E (human) (UniProt P49674)
CSNK1G1 (human) = CSNK1G1 (human) (UniProt Q9HCP0)
CSNK1G2 (human) = CSNK1G2 (human) (UniProt P78368)
CSNK1G3 (human) = CSNK1G3 (human) (UniProt Q9Y6M4)
DYRK4 (human) = DYRK4 (human) (UniProt Q9NR20)
FGFR1 (human) = FGFR1 (human) (UniProt P11362)
FGFR2 (human) = FGFR2 (human) (UniProt P21802)
FLT4 (human) = FLT4 (human) (UniProt P35916)
GRK5 (human) = GRK5 (human) (UniProt P34947)
Sequence of GRK5 (human) (P34947 whole entry, looked up): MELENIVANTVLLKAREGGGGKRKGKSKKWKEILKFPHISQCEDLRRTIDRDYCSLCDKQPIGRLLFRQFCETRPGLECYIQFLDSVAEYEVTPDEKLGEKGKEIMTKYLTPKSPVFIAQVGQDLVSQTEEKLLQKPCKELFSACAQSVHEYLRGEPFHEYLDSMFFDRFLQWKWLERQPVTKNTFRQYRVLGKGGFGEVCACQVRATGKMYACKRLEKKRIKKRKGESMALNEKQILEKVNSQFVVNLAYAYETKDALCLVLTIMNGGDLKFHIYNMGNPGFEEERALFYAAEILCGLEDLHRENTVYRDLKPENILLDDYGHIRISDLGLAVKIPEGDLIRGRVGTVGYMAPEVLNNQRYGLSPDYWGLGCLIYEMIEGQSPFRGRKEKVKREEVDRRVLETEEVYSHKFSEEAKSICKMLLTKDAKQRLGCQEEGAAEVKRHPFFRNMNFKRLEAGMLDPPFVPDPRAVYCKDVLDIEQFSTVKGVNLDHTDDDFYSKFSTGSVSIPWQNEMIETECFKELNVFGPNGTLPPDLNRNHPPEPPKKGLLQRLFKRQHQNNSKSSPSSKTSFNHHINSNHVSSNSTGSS

GSK3A (human) = GSK3A (human) (UniProt P49840)
INSRR (human) = INSRR (human) (UniProt P14616)
KDR (human) = KDR (human) (UniProt P35968)
MAP2K2 (human) = MAP2K2 (human) (UniProt P36507)
MAPK3 (human) = MAPK3 (human) (UniProt P27361)
MATK (human) = MATK (human) (UniProt P42679)
MERTK (human) = MERTK (human) (UniProt Q12866)
MUSK (human) = MUSK (human) (UniProt O15146)
PAK6 (human) = PAK6 (human) (UniProt Q9NQU5)
[1] = tested on: PDGFRA (human), P16234 [D842V]
Sequence of PDGFRA (human), P16234 [D842V] (P16234 whole entry D842V, looked up): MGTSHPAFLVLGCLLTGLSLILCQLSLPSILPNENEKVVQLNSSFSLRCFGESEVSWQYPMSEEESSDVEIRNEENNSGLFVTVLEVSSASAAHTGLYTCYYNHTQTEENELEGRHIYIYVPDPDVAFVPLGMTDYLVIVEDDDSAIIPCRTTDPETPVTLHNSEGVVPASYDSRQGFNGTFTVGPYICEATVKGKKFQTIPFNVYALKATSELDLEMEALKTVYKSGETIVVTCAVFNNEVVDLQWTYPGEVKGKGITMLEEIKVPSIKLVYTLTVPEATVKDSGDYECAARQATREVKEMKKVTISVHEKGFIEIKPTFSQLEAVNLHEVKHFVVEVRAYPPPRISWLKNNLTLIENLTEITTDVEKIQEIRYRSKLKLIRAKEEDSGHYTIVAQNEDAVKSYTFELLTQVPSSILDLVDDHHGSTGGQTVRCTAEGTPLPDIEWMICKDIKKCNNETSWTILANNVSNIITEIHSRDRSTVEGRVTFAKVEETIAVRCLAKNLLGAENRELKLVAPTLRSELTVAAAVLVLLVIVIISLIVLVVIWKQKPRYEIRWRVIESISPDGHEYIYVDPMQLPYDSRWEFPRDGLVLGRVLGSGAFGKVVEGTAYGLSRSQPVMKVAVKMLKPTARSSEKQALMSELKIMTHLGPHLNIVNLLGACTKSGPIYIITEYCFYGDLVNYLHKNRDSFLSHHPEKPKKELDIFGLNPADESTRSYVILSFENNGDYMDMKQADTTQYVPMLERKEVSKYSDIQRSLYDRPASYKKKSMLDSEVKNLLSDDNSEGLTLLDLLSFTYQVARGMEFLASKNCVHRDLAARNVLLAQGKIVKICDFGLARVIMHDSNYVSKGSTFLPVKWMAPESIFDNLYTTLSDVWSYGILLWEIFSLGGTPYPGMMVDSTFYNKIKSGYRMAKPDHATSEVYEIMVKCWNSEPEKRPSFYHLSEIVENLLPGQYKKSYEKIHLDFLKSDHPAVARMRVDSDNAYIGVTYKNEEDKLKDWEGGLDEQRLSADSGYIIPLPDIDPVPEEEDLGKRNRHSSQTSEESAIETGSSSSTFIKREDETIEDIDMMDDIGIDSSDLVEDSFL

PDGFRB (human) = PDGFRB (human) (UniProt P09619)
PIM2 (human) = PIM2 (human) (UniProt Q9P1W9)
PKN1 (human) = PKN1 (human) (UniProt Q16512)
PLK1 (human) = PLK1 (human) (UniProt P53350)
Sequence of PLK1 (human) (P53350 whole entry, looked up): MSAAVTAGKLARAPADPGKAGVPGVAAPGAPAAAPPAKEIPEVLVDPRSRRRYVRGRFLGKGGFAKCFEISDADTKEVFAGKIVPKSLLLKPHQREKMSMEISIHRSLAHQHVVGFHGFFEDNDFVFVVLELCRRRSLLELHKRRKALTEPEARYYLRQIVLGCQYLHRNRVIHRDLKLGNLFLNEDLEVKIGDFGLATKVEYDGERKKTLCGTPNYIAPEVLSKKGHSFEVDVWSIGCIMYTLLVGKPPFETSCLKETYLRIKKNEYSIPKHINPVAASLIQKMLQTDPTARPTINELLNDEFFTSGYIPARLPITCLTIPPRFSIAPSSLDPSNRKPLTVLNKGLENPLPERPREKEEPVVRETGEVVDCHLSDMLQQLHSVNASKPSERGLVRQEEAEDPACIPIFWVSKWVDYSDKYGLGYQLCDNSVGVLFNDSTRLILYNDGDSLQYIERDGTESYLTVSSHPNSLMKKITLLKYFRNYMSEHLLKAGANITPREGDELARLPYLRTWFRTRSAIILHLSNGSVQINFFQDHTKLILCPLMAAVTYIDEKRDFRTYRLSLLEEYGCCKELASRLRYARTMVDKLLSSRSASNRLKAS

PLK2 (human) = PLK2 (human) (UniProt Q9NYY3)
PRKCA (human) = PRKCA (human) (UniProt P17252)
PRKCI (human) = PRKCI (human) (UniProt P41743)
PRKCQ (human) = PRKCQ (human) (UniProt Q04759)
PRKD1 (human) = PRKD1 (human) (UniProt Q15139)
PRKD3 (human) = PRKD3 (human) (UniProt O94806)
PTK2 (human) = PTK2 (human) (UniProt Q05397)
RPS6KA5 KD1 KD2 (human) = RPS6KA5 KD1 KD2 (human) (UniProt O75582)
SRPK2 (human) = SRPK2 (human) (UniProt P78362)
TBK1 (human) = TBK1 (human) (UniProt Q9UHD2)
TEK (human) = TEK (human) (UniProt Q02763)
TSSK2 (human) = TSSK2 (human) (UniProt Q96PF2)

Sequence of AKT1 (human) (P31749 whole entry, looked up): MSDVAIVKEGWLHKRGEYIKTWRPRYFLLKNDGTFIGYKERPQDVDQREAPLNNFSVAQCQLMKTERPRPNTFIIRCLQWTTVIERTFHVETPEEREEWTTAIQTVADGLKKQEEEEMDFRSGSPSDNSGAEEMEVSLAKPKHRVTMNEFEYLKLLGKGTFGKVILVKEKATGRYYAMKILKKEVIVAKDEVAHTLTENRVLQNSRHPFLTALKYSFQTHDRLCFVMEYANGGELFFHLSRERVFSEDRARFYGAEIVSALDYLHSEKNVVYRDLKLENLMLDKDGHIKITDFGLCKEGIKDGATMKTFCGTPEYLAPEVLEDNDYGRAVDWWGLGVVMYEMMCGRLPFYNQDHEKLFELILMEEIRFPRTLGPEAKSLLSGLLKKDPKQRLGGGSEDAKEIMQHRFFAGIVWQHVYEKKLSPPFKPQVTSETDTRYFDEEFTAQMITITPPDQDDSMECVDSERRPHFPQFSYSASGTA
Sequence of CHEK2 (human) (O96017 whole entry, looked up): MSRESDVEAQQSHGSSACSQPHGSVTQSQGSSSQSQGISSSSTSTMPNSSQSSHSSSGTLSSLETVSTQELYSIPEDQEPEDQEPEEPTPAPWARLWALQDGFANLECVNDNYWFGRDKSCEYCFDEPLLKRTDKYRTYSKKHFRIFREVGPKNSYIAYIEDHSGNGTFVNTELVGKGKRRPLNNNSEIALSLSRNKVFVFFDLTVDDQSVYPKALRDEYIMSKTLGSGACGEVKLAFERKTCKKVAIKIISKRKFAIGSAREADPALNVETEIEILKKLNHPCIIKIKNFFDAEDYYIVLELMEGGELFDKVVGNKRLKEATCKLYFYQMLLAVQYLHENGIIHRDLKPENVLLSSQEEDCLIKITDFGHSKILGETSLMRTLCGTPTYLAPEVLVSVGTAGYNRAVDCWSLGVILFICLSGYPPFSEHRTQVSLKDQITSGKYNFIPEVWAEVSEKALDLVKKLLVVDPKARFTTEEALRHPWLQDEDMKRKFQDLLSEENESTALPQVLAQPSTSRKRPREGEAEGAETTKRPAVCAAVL
Sequence of CSNK1E (human) (P49674 whole entry, looked up): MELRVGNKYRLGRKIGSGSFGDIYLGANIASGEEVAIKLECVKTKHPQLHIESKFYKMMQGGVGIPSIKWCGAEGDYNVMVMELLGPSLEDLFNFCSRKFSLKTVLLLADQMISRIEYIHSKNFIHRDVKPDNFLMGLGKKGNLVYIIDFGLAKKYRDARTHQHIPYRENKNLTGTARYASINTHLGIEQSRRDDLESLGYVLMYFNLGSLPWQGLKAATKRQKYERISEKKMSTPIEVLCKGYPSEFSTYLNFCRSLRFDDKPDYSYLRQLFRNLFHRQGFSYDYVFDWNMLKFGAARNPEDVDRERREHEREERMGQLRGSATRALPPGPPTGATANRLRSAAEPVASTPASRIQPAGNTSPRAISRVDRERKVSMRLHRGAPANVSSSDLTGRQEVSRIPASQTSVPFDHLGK
Sequence of CSNK1A1 (human) (P48729 whole entry, looked up): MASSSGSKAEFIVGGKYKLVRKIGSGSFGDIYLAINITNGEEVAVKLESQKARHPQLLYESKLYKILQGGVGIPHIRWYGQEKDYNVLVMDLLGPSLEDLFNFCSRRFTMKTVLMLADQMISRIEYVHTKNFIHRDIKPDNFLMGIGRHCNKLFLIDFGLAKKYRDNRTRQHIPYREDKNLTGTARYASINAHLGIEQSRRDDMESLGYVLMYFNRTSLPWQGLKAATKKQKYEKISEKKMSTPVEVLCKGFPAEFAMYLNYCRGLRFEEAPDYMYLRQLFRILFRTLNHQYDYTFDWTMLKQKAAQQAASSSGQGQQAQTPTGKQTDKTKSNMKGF

Nc1cc(C(F)(F)F)c(-c2cc(N3CCOCC3)nc(N3CCOCC3)n2)cn1
inhibition (AKT1 (human)): 2% | inhibition (CDK1 CCNB1 (human)): 9% | inhibition (CHEK2 (human)): 17% | inhibition (CLK2 (human)): 15% | inhibition (CSNK1A1 (human)): -1% | inhibition (CSNK1E (human)): 11% | inhibition (CSNK1G1 (human)): 1% | inhibition (CSNK1G2 (human)): 0% | inhibition (CSNK1G3 (human)): -3% | inhibition (DYRK4 (human)): 3% | inhibition (FGFR1 (human)): 4% | inhibition (FGFR2 (human)): 2% | inhibition (FLT4 (human)): 2% | inhibition (GRK5 (human)): 1% | inhibition (GSK3A (human)): 5% | inhibition (INSRR (human)): 3% | inhibition (KDR (human)): 3% | inhibition (MAP2K2 (human)): 3% | inhibition (MAPK3 (human)): 7% | inhibition (MATK (human)): 0% | inhibition (MERTK (human)): 3% | inhibition (MUSK (human)): 5% | inhibition (PAK6 (human)): 0% | inhibition [1]: 1% | inhibition (PDGFRB (human)): 5% | inhibition (PIM2 (human)): 3% | inhibition (PKN1 (human)): 9% | inhibition (PLK1 (human)): 1% | inhibition (PLK2 (human)): -2% | inhibition (PRKCA (human)): 4% | inhibition (PRKCI (human)): 9% | inhibition (PRKCQ (human)): 5% | inhibition (PRKD1 (human)): 5% | inhibition (PRKD3 (human)): 8% | inhibition (PTK2 (human)): 4% | inhibition (RPS6KA5 KD1 KD2 (human)): 8% | inhibition (SRPK2 (human)): 7% | inhibition (TBK1 (human)): 7% | inhibition (TEK (human)): 5% | inhibition (TSSK2 (human)): -6%
